# Patent US5128338A, “Imidazo [1,2-c] quinazoline compounds” (priority 1990, dated 1992)
# Read-outs that look alike come from different tables or passages of the source.
# How the values were obtained:
# [1] = target: T1, peripheral receptors for benzodiazepines ([^3 H]-R05-4864) (Rattus norvegicus, UniProt P16257); assay: Displacement of [3H]-R05-4864, rat heart microsomal fractions; format: binding; conditions: corrected for DMSO, read-out: K0.5, peripheral receptors, [^3 H]--RO 54864;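 further: Read-out is filter-retained bound radioligand, separated from free ligand by vacuum filtration over GF/C and counted by liquid scintillation, with compounds first dissolved in DMSO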
# T1 construct: on microsomal fractions from rat heart; from tissue; host or cells: rat heart, microsomal fractions
# porcine coronary = assay: Porcine coronary relaxation (PGF2α-precontracted coronary segments); set-up: species or system pig (Yucatan mini pig); conditions: for EC20 / EC50: Sus scrofa; for EC20: read-out: DE20, effect on coronary tension induced by PGF2α; for EC50: read-out: DE50, effect on coronary tension induced by PGF2α; for level of relaxation obtained as well as the 50% effect value (K0.5) obtained by displacement: overall judgement of relaxation and K0.5
# Procedure: All the products studied were dissolved in DMSO at a concentration of 10^-2 M, then diluted to the desired concentrations in the experimental media. All of the ED20, ED50 and K0.5 values were corrected for the values obtained with DMSO under the same conditions of dilution.
# Coronaries were taken on the heart of pigs (Yucatan mini pig), anesthetized under stresnil and pentobarbital. Proximal segments of the coronary were placed in an organ tank filled with Ringer solution at 37° C. The segments were tightened progressively to a base tension of around 6 g and contracted by the addition of PGF2α at a concentration of 4.10^-6 M. The potential of the products of the present invention to relax the coronary artery were then tested.
# All of the compounds were tested for their capacity to relax the porcine coronary precontracted by PGF2α.
# [2] = target: T2, peripheral receptors for benzodiazepines ([^3 H]-PK 11195) (Rattus norvegicus, UniProt P16257); assay: Displacement of [3H]-PK 11195, rat heart microsomal fractions; format: binding; conditions: corrected for DMSO, read-out: K0.5, peripheral receptors, [^3 H]--PK 11195;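 further: radioligand binding with bound label split from free by vacuum filtration, then quantified through liquid scintillation counting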
# T2 construct: on microsomal fractions from rat heart; from tissue; host or cells: rat heart, microsomal fractions
# [3] = target: central receptors for benzodiazepines; assay: Displacement of [3H]-RO 151788, rat central nervous system microsomal fractions; format: binding; conditions: corrected for DMSO, read-out: K0.5, central receptors, [^3 H]--RO 151788
# [4] = porcine coronary segments, 37° C., PGF2α 4.10^-6 M, corrected for DMSO
# [5] = porcine coronary segments, PGF2α 4.10^-6 M
SMILES,IC50 [1] [µM],EC20 (porcine coronary; [4]) [µM],EC50 (porcine coronary; [4]) [µM],IC50 [2] [µM],IC50 [3] [µM],level of relaxation obtained as well as the 50% effect value (K0.5) obtained by displacement (porcine coronary),EC20 (porcine coronary) [µM],EC50 (porcine coronary) [µM],Effect on coronary tension induced by PGF2α (in words) (porcine coronary; [5])
"CCN(CC)C(=O)Cn1c(=O)n2c(C)c(-c3ccccc3)nc2c2ccccc21 [Example 20, 2-phenyl-3-methyl-6--N,N-diethylaminocarbonylmethyl-5-oxo-5,6-dihydroimidazo[1,2-c]quinazoline]",0.0086,3.46,0.87,,,,,,
"OCCN(CCO)c1nc(N2CCCCC2)c2nc(N(CCO)CCO)nc(N3CCCCC3)c2n1 [Dipyridamole, dipyridamole, reference compound]",0.2,1.61,0.446,0.3,,,,,
"CCOC(=O)COc1ccc2c(=O)cc(-c3ccccc3)oc2c1 [Efloxate, efloxate, reference compound]",200,35.8,3.94,20,,,,,
"Cn1c(=O)n2cc(-c3ccccc3)nc2c2ccccc21 [Example 29, 2-phenyl-6-methyl--5-oxo-5,6-dihydroimidazo[1,2-c]quinazoline]",> 100,> 100,> 100,> 100,,,,,
"CCN(CC)C(=O)Cn1c(=O)n2cc(-c3ccsc3)nc2c2ccccc21 [Example 22, 2-(3-thienyl)-6-N,N-diethylaminocarbonylmethyl-5-oxo-5,6-dihydroimidazo[1,2-c]quinazoline]",0.13,3.51,0.73,0.2,> 100,,,,
"CCN(CC)C(=O)Cn1c(=O)n2cc(C(=O)c3ccccc3)nc2c2ccccc21 [Example 6, 2-Benzoyl-6-N,N-diethylaminocarbonylmethyl-5-oxo-5,6-dihydroimidazo[1,2-c]quinazoline]",0.2,,,0.22,,,,,
"CCOC(=O)Cn1c(=O)n2cc(-c3ccccc3)nc2c2ccccc21 [Example 13, 2-phenyl-6-ethoxycarbonylmethyl-5-oxo-5,6-dihydroimidazo[1,2-c]quinazoline]",> 100,84.2,7.15,100,> 100,,,,
"CCCN(CCC)C(=O)Cn1c(=O)n2cc(-c3ccccc3)nc2c2ccccc21 [Example 28, 2-phenyl-6-N,N-dipropylaminocarbonylmethyl-5-oxo-5,6-dihydroimidazo[1,2-c]quinazoline]",,> 100,196,,100,particularly favorable,,,
"CN1CCN(C(=O)Cn2c(=O)n3cc(-c4ccccc4)nc3c3ccccc32)CC1 [Example 12, 2-phenyl-6-N-methylpiperazinocarbonylmethyl-5-oxo-5,6-dihydroimidazo[1,2-c]quinazoline]",40,587,31.9,80,,,,,
"CCOC(=O)CCCn1c(=O)n2cc(-c3ccccc3)nc2c2ccccc21 [Example 27, 2-phenyl-6-ethoxycarbonylpropyl-5-oxo-5,6-dihydroimidazo[1,2-c]quinazoline]",60,> 100,> 100,> 100,100,,,,
"O=C(Cn1c(=O)n2cc(-c3ccccc3)nc2c2ccccc21)N1CCOCC1 [Example 16, 2-phenyl-6-morpholinocarbonylmethyl-5-oxo-5,6-dihydroimidazo[1,2-c]quinazoline]",> 100,12.3,3.49,> 100,> 100,,,,
"CC(C)CNC(=O)Cn1c(=O)n2cc(-c3ccccc3)nc2c2ccccc21 [Example 24, 2-phenyl-6-N-isobutylaminocarbonylmethyl-5-oxo-5,6-dihydroimidazo[1,2-c]quinazoline]",> 100,24.1,0.99,> 100,> 100,,,,
"CCc1c(-c2ccccc2)nc2c3ccccc3n(CC(=O)N(CC)CC)c(=O)n12 [Example 25, 2-phenyl-3-ethyl-6-N,N-diethylaminocarbonylmethyl-5-oxo-5,6-dihydroimidazo[1,2-c]quinazoline]",0.05,> 100,370,0.032,,,,,
"CCN(CC)C(=O)Cn1c(=O)n2cc(-c3ccc(C)cc3)nc2c2ccccc21 [Example 18, 2-(p-methylphenyl)-6-N,N-diethylaminocarbonylmethyl-5-oxo-5,6-dihydroimidazo[1,2-c]quinazoline]",0.07,8.37,0.94,0.21,100,,,,
"CCN(CC)C(=O)Cn1c(=O)n2cc(-c3cccc(Cl)c3)nc2c2ccccc21 [Example 19, 2-(m-chlorophenyl)-6-N,N-diethylaminocarbonylmethyl-5-oxo-5,6-dihydroimidazo[1,2-c]quinazoline]",0.05,23.6,2.36,0.058,> 100,,,,
"CCC(C)N(C)C(=O)c1cc2ccccc2c(-c2ccccc2Cl)n1 (stereo not drawn) [PK 11195, reference compound]",,,,,,,9.13,1.66,
"CCN(CC)C(=O)Cn1c(=O)n2cc(-c3ccccc3)nc2c2ccccc21 [Example 11, 2-phenyl-6-N,N-diethylaminocarbonylmethyl-5-oxo-5,6-dihydroimidazo[1,2-c]quinazoline]",,6.93,1.13,,> 100,particularly favorable,,,
"CCN(CC)C(=O)Cn1c(=O)n2cc(-c3ccc(Cl)cc3)nc2c2ccccc21 [Example 15, 2-(p-chlorophenyl)-6-N,N-diethylaminocarbonylmethyl-5-oxo-5,6-dihydroimidazo[1,2-c]quinazoline]",~100,45.4,6.12,1.5,> 100,,,,
"O=C(c1ccccc1)c1cn2c(=O)[nH]c3ccccc3c2n1 [Example 9, 2-benzoyl-5-oxo-5,6-dihydroimidazo[1,2-c]quinazoline]",13,,,28,,,,,No effect
"O=c1[nH]c2ccccc2c2nc(-c3ccccc3)cn12 [Example 3, 2-Phenyl-5-oxo-5,6-dihydroimidazo[1,2-c]quinazoline]",> 100,35.4,7.48,4.5,,,,,
"CCOC(=O)c1cn2c(=O)n(CC(=O)N(CC)CC)c3ccccc3c2n1 [Example 2, 2-Ethoxycarbonyl-6-N,N-diethylaminocarbonylmethyl-5-oxo-5,6-dihydroimidazo[1,2-c]quinazoline]",,,,0.55,,,,,
"CCOC(=O)c1cn2c(=O)n(C)c3ccccc3c2n1 [Example 8, 2-ethoxycarbonyl-6-methyl-5-oxo-5,6-dihydroimidazo[1,2-c]quinazoline]",30,,,> 100,,,,,No effect
"CCOC(=O)c1cn2c(=O)n(Cc3ccccc3)c3ccccc3c2n1 [Example 10, 2-ethoxycarbonyl-6-benzyl-5-oxo-5,6-dihydroimidazo[1,2-c]quinazoline]",8.8,3.33,1.04,~100,,particularly favorable,,,
"CCN(CC)C(=O)Cn1c(=O)n2c(CN(C)C)c(-c3ccccc3)nc2c2ccccc21 [Example 5, 2-Phenyl-3-dimethylaminomethyl-6-N,N-diethylaminocarbonylmethyl-5-oxo-5,6-dihydroimidazo[1,2-c]quinazoline]",4.5,144,18.9,2.2,,,,,
"CCN(CC)C(=O)Cn1c(=O)n2cc(-c3ccc(OC)c(OC)c3)nc2c2ccccc21 [Example 23, 2-(3,4-dimethoxyphenyl)-6-N,N-diethylaminocarbonylmethyl-5-oxo-5,6-dihydroimidazo[1,2-c]quinazoline]",,0.74,0.18,,> 100,,,,
"CCN(CC)C(=O)Cn1c(=O)n2cc(-c3ccccc3Cl)nc2c2ccccc21 [Example 30, 2-(o-chlorophenyl)-6-N,N-diethylaminocarbonylmethyl-5-oxo-5,6-dihydroimidazo[1,2-c]quinazoline]",0.034,73.9,10.4,0.28,,,,,
"CCN(CC)C(=O)Cn1c(=O)n2cc(-c3ccccc3)nc2c2c(Cl)cccc21 [Example 31, 2-phenyl-6-N,N-diethylaminocarbonylmethyl-10-chloro-5-oxo-5,6-dihydroimidazo[1,2-c]quinazoline]",2.8,,,1.4,100,,,,
"CN1C(=O)CN=C(c2ccccc2)c2cc(Cl)ccc21 [Diazepam, diazepam, reference compound]",,,,,,,16.4,,
"CN1C(=O)CN=C(c2ccc(Cl)cc2)c2cc(Cl)ccc21 [Example R05-4864, reference compound]",,,,,,,9.38,1.48,
